According to ChEMBL document CHEMBL1140628, “Assessing potency of c-Jun N-terminal kinase 3 (JNK3) inhibitors using 2D molecular descriptors and binary QSAR methodology” (Bioorg Med Chem, 2007):

Biological target: Mitogen-activated protein kinase 10 (Homo sapiens, UniProt P53779)
Assay: Inhibition of JNK3

Mitogen-activated protein kinase 10, sequence (P53779 whole entry): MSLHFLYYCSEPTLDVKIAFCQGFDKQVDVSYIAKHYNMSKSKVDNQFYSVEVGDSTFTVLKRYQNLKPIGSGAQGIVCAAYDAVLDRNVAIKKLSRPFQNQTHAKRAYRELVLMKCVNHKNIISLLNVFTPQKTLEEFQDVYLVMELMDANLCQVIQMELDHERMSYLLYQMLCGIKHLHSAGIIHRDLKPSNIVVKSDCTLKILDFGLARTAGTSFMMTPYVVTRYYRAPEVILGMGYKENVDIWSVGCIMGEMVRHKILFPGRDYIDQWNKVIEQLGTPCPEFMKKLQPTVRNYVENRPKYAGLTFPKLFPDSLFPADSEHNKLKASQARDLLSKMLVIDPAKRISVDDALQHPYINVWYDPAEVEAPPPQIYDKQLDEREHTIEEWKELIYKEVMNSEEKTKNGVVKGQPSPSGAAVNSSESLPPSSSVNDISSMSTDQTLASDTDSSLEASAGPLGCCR

Compared with `CCCn1c(C2CCN(C)CC2)nc(-c2ccc(Cl)c(Cl)c2)c1-c1ccnc(NC2CC2)n1`, `COc1ccc(CCNc2nccc(/C(C#N)=C3\Nc4ccccc4S3)n2)cc1` is 1.9-fold higher in IC50: 1.6 nM for the first, 3.1 nM for the second.

Compared with `NC1=CC=C2SN=C3c4ccccc4C(=O)C1C23` (stereo not given), `Oc1c2ccccc2c2c3c(cccc13)N=N2` [SP-600125] is 2.1-fold lower in IC50: 400 nM for the first, 190 nM for the second.

With `N#C/C(=C1/Nc2ccccc2S1)c1ccnc(NCCc2ccc(S(N)(=O)=O)cc2)n1` the IC50 was 41 nM.
